{"source": "patent US12649750B2", "about": "“Macrocyclic compounds, compositions, and methods of using thereof” (Sionna Therapeutics Inc., priority 2022, dated 2026)", "data": [{"target": "T1, NBD1 (Homo sapiens, UniProt P13569)", "T1 construct": "Purified recombinant NBD1 was produced using previously described methods; made in house", "T1 sequence (P13569 423-646 limits assumed)": "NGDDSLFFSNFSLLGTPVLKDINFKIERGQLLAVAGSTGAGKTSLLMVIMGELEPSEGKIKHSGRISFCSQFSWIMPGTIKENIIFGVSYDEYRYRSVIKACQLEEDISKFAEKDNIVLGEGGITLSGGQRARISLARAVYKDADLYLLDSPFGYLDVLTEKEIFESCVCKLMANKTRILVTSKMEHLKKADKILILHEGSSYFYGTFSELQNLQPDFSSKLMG", "assay": "Aggregation analysis using differential static light scattering (DSLS), thermal stability of NBD1 (ΔTagg)", "format": "binding", "conditions": "ΔTagg versus DMSO control, NBD1 0.2 mg/ml", "method_in_brief": "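Purified recombinant NBD1 at 0.2 mg/ml in 50 mM Tris-HCl, 150 mM NaCl, 5 mM MgCl2, 2 mM ATP, 2 mM DTT, pH 7.6, 1% glycerol, with compound, heated 1° C./min to 70° C. under light-scattering monitoring. Tagg taken at curve inflection; ΔTagg is compound Tagg minus mean DMSO-control Tagg, binned A (≤5° C.), B (>5-≤10° C.), C (>10-≤25° C.).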", "values": [{"compound": "CC(=O)OC[C@H](Cc1cccc([C@@]2(C)CCCC(C)(C)CS(=O)(=O)CCc3c(c(F)cc4[nH]ccc34)Sc3ccnc(c3)-c3nc2nn3C)c1)OC(C)=O", "note": "[Compound 332]", "DSLS 3D (100 μM ΔT)": "A (an ΔTagg value less than or equal to 5 °C is marked “A”)"}, {"compound": "Cn1nc2nc1-c1cc(ccn1)Sc1c(F)cc3[nH]ccc3c1CCS(=O)(=O)CC(C)(C)CCC[C@]2(C)c1cccc(C[C@H](O)CO)c1", "note": "[Compound 333, (2S)-3-[3-[(6R)-22-Fluoro-3,6,10,10-tetramethyl-12,12-dioxo-12λ6,24-dithia-3,4,19,28,30-pentazapentacyclo[23.3.1.12,5.015,23.016,20]triaconta-1(29),2(30),4,15,17,20,22,25,27-nonaen-6-yl]phenyl]propane-1,2-diol]", "DSLS 3D (100 μM ΔT)": "B (a value above 5 °C and less than or equal to 10 °C is marked “B”)"}, {"compound": "Cn1nc2nc1-c1cc(ccn1)S(=O)(=O)c1c(F)cc3[nH]ccc3c1CCS(=O)(=O)CC(C)(C)CCC[C@]2(C)c1cccc(C[C@H](O)CO)c1", "note": "[Compound 335, (2S)-3-[3-[(6R)-22-Fluoro-3,6,10,10-tetramethyl-12,12,24,24-tetraoxo-12λ6,24λ6-dithia-3,4,19,28,30-pentazapentacyclo[23.3.1.12,5.015,23.016,20]triaconta-1(29),2(30),4,15,17,20,22,25,27-nonaen-6-yl]phenyl]propane-1,2-diol]", "DSLS 3D (100 μM ΔT)": "A (an ΔTagg value less than or equal to 5 °C is marked “A”)"}, {"compound": "CC(=O)OC[C@@H](Cc1cccc([C@@]2(C)CCCC(C)(C)CS(=O)(=O)CCc3c(c(F)cc4[nH]ccc34)Sc3ccnc(c3)-c3nc2nn3C)c1)OC(C)=O", "note": "[Compound 336A, [(2R)-2-Acetoxy-3-[3-[(6R)-22-fluoro-3,6,10,10-tetramethyl-12,12-dioxo-12λ6,24-dithia-3,4,19,28,30-pentazapentacyclo[23.3.1.12,5.015,23.016,20]triaconta-1(29),2(30),4,15,17,20,22,25,27-nonaen-6-yl]phenyl]propyl]Acetate]", "DSLS 3D (100 μM ΔT)": "A (an ΔTagg value less than or equal to 5 °C is marked “A”)"}, {"compound": "Cn1nc2nc1-c1cc(ccn1)Sc1c(F)cc3[nH]ccc3c1CCS(=O)(=O)CC(C)(C)CCC[C@]2(C)c1cccc(C[C@@H](O)CO)c1", "note": "[Compound 336B, (2R)-3-[3-[(6R)-22-Fluoro-3,6,10,10-tetramethyl-12,12-dioxo-12λ6,24-dithia-3,4,19,28,30-pentazapentacyclo[23.3.1.12,5.015,23.016,20]triaconta-1(29),2(30),4,15,17,20,22,25,27-nonaen-6-yl]phenyl]propane-1,2-diol]", "DSLS 3D (100 μM ΔT)": "A (an ΔTagg value less than or equal to 5 °C is marked “A”)"}, {"compound": "Cn1nc2nc1-c1cc(ccn1)S(=O)(=O)c1c(F)cc3[nH]ccc3c1CCS(=O)(=O)CC(C)(C)CCC[C@]2(C)c1cccc(C[C@@H](O)CO)c1", "note": "[Compound 338, (2R)-3-[3-[(6R)-22-Fluoro-3,6,10,10-tetramethyl-12,12,24,24-tetraoxo-12λ6,24λ6-dithia-3,4,19,28,30-pentazapentacyclo[23.3.1.12,5.015,23.016,20]triaconta-1(29),2(30),4,15,17,20,22,25,27-nonaen-6-yl]phenyl]propane-1,2-diol]", "DSLS 3D (100 μM ΔT)": "A (an ΔTagg value less than or equal to 5 °C is marked “A”)"}, {"compound": "CC(=O)OC[C@H](Cc1cccc([C@@]2(C)CCCC(C)(C)CS(=O)(=O)CCc3c(c(F)c(F)c4[nH]ccc34)Sc3ccnc(c3)-c3nc2nn3C)c1)OC(C)=O", "note": "[Compound 339, [(2S)-2-acetoxy-3-[3-[(6R)-21,22-difluoro-3,6,10,10-tetramethyl-12,12-dioxo-12λ6,24-dithia-3,4,19,28,30-pentazapentacyclo[23.3.1.12,5.015,23.016,20]triaconta-1(29),2(30),4,15,17,20,22,25,27-nonaen-6-yl]phenyl]propyl]Acetate]", "DSLS 3D (100 μM ΔT)": "A (an ΔTagg value less than or equal to 5 °C is marked “A”)"}, {"compound": "Cn1nc2nc1-c1cc(ccn1)Sc1c(F)c(F)c3[nH]ccc3c1CCS(=O)(=O)CC(C)(C)CCC[C@]2(C)c1cccc(C[C@H](O)CO)c1", "note": "[Compound 340, (2S)-3-[3-[(6R)-21,22-Difluoro-3,6,10,10-tetramethyl-12,12-dioxo-12λ6,24-dithia-3,4,19,28,30-pentazapentacyclo[23.3.1.12,5.015,23.016,20]triaconta-1(29),2(30),4,15,17,20,22,25,27-nonaen-6-yl]phenyl]propane-1,2-diol]", "DSLS 3D (100 μM ΔT)": "B (a value above 5 °C and less than or equal to 10 °C is marked “B”)"}, {"compound": "Cn1nc2nc1-c1cc(ccn1)S(=O)(=O)c1c(F)c(F)c3[nH]ccc3c1CCS(=O)(=O)CC(C)(C)CCC[C@]2(C)c1cccc(C[C@H](O)CO)c1", "note": "[Compound 342]", "DSLS 3D (100 μM ΔT)": "A (an ΔTagg value less than or equal to 5 °C is marked “A”)"}, {"compound": "C[C@H](Cc1cccc([C@@]2(C)CCCC(C)(C)CS(=O)(=O)CCc3c(c(F)c(F)c4[nH]cc(F)c34)Oc3ccc(F)c(c3)-c3nc2nn3C)c1)C(=O)O", "note": "[Compound 345, (2R)-2-Methyl-3-[3-[(6R)-17,21,22,28-tetrafluoro-3,6,10,10-tetramethyl-12,12-dioxo-24-oxa-12λ6-thia-3,4,19,30-tetrazapentacyclo[23.3.1.12,5.015,23.016,20]triaconta-1(29),2(30),4,15,17,20,22,25,27-nonaen-6-yl]phenyl]propanoic Acid]", "DSLS 3D (100 μM ΔT)": "B (a value above 5 °C and less than or equal to 10 °C is marked “B”)"}, {"compound": "C[C@@H](Cc1cccc([C@@]2(C)CCCC(C)(C)CS(=O)(=O)CCc3c(c(F)c(F)c4[nH]ccc34)S(=O)(=O)c3ccnc(c3)-c3nc2nn3C)c1)C(=O)O", "note": "[Compound 346, (2S)-3-[3-[(6R)-21,22-Difluoro-3,6,10,10-tetramethyl-12,12,24,24-tetraoxo-12λ6,24λ6-dithia-3,4,19,28,30-pentazapentacyclo[23.3.1.12,5.015,23.016,20]triaconta-1(29),2(30),4,15,17,20,22,25,27-nonaen-6-yl]phenyl]-2-methyl-propanoic Acid]", "DSLS 3D (100 μM ΔT)": "B (a value above 5 °C and less than or equal to 10 °C is marked “B”)"}, {"compound": "C[C@@H](Cc1cccc([C@@]2(C)CCCC(C)(C)CS(=O)(=O)CCc3c(c(F)cc4[nH]ccc34)S(=O)(=O)c3ccnc(c3)-c3nc2nn3C)c1)C(=O)O", "note": "[Compound 347, (2S)-3-[3-[(6R)-22-Fluoro-3,6,10,10-tetramethyl-12,12,24,24-tetraoxo-12λ6,24λ6-dithia-3,4,19,28,30-pentazapentacyclo[23.3.1.12,5.015,23.016,20]triaconta-1(29),2(30),4,15,17,20,22,25,27-nonaen-6-yl]phenyl]-2-methyl-propanoic Acid]", "DSLS 3D (100 μM ΔT)": "B (a value above 5 °C and less than or equal to 10 °C is marked “B”)"}, {"compound": "Cn1nc2nc1-c1cc(ccc1F)S(=O)(=O)c1c(F)cc3[nH]ccc3c1CCS(=O)(=O)CC(C)(C)CCC[C@]2(C)c1cccc(CC(C)(C)C(=O)O)c1", "note": "[Compound 348A, 3-[3-[(6R)-22,28-Difluoro-3,6,10,10-tetramethyl-12,12,24,24-tetraoxo-12λ6,24λ6-dithia-3,4,19,30-tetrazapentacyclo[23.3.1.12,5.015,23.016,20]triaconta-1(29),2(30),4,15,17,20,22,25,27-nonaen-6-yl]phenyl]-2,2-dimethyl-propanoic Acid]", "DSLS 3D (100 μM ΔT)": "A (an ΔTagg value less than or equal to 5 °C is marked “A”)"}, {"compound": "Cn1nc2nc1-c1cc(ccc1F)S(=O)(=O)c1c(F)cc3[nH]cc(Cl)c3c1CCS(=O)(=O)CC(C)(C)CCC[C@]2(C)c1cccc(CC(C)(C)C(=O)O)c1", "note": "[Compound 348B, 3-[3-[(6R)-17-Chloro-22,28-difluoro-3,6,10,10-tetramethyl-12,12,24,24-tetraoxo-12λ6,24λ6-dithia-3,4,19,30-tetrazapentacyclo[23.3.1.12,5.015,23.016,20]triaconta-1(29),2(30),4,15,17,20,22,25,27-nonaen-6-yl]phenyl]-2,2-dimethyl-propanoic Acid]", "DSLS 3D (100 μM ΔT)": "A (an ΔTagg value less than or equal to 5 °C is marked “A”)"}, {"compound": "C[C@H](Cc1cccc([C@@]2(C)CCCC(C)(C)CS(=O)(=O)CCc3c(c(F)cc4[nH]ccc34)S(=O)(=O)c3ccnc(c3)-c3nc2nn3C)c1)C(=O)O", "note": "[Compound 349, (2R)-3-[3-[(6R)-22-Fluoro-3,6,10,10-tetramethyl-12,12,24,24-tetraoxo-12λ6,24λ6-dithia-3,4,19,28,30-pentazapentacyclo[23.3.1.12,5.015,23.016,20]triaconta-1(29),2(30),4,15,17,20,22,25,27-nonaen-6-yl]phenyl]-2-methyl-propanoic Acid]", "DSLS 3D (100 μM ΔT)": "B (a value above 5 °C and less than or equal to 10 °C is marked “B”)"}, {"compound": "Cn1nc2nc1-c1cc(ccn1)S(=O)(=O)c1c(F)cc3[nH]ccc3c1CCS(=O)(=O)CC(C)(C)CCC[C@]2(C)c1cccc(CC(C)(C)C(=O)O)c1", "note": "[Compound 350, 3-[3-[(6R)-22-Fluoro-3,6,10,10-tetramethyl-12,12,24,24-tetraoxo-12λ6,24λ6-dithia-3,4,19,28,30-pentazapentacyclo[23.3.1.12,5.015,23.016,20]triaconta-1(29),2(30),4,15,17,20,22,25,27-nonaen-6-yl]phenyl]-2,2-dimethyl-propanoic Acid]", "DSLS 3D (100 μM ΔT)": "A (an ΔTagg value less than or equal to 5 °C is marked “A”)"}, {"compound": "C[C@@H](Cc1cccc([C@@]2(C)CCCC(C)(C)CS(=O)(=O)CCc3c(c(F)c(F)c4[nH]ccc34)S(=O)(=O)c3ccc(F)c(c3)-c3nc2nn3C)c1)C(=O)O", "note": "[Compound 351, (2S)-2-Methyl-3-[3-[(6R)-21,22,28-trifluoro-3,6,10,10-tetramethyl-12,12,24,24-tetraoxo-12λ6,24λ6-dithia-3,4,19,30-tetrazapentacyclo[23.3.1.12,5.015,23.016,20]triaconta-1(29),2(30),4,15,17,20,22,25,27-nonaen-6-yl]phenyl]propanoic Acid]", "DSLS 3D (100 μM ΔT)": "B (a value above 5 °C and less than or equal to 10 °C is marked “B”)"}]}]}
